A value given as a limit tells only on which side of the number the result lay.

Assay [1] concerns the target T1, DRD4 (D4.4 variant) wild-type (Homo sapiens, UniProt P21917).
T1 sequence (P21917 1-419): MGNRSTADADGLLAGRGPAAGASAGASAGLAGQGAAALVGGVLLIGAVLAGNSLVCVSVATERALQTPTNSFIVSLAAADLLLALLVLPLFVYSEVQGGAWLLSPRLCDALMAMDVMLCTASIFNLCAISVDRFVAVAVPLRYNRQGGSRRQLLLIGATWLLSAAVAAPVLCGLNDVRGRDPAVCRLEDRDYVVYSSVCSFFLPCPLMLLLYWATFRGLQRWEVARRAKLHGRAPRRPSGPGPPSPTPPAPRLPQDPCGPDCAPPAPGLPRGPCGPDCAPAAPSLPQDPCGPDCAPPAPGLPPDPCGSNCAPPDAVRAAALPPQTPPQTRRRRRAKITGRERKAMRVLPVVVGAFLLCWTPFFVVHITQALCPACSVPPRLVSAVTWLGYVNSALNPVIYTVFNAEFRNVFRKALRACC
Nature of the assay: Radioligand competition binding, [3H]-N-methylspiperone. Particulars: DRD4; [3H]-methylspiperone (0.8-1.0 nM); read-out: Ki.

The target of assay [2] is T2, DRD4 (D4.4 variant) (Homo sapiens, UniProt P21917).
T2 sequence (P21917 1-419): T1 sequence (P21917 1-419)
Nature of the assay: Gαi/o-mediated cAMP inhibition (GloSensor). The format is cell-based. The note with it: DRD4; agonist, cAMP inhibition; read-out: EC50 ± SEM.

The target of assay [3] is T2, DRD4 (D4.4 variant). Nature of the assay: β-arrestin2 recruitment (Tango). The format is cell-based. Particulars: DRD4; Tango; read-out: EC50 ± SEM. For orientation: Arrestin recruitment assays detect the binding of arrestin to an activated receptor.
Another assay addresses T3, DRD2 F1103.28L (Homo sapiens, UniProt P14416, F110L).
T3 construct: expressed in transfected cells; host or cells: HEK293T (ATCC CRL-11268)
Nature of the assay: β-arrestin2 recruitment (Tango), mutant. Type of assay: cell-based.

Assay [4] addresses T4, DRD2 F1103.28A (Homo sapiens, UniProt P14416, F110A). Type of assay: binding. The arrangement: expressed in transfected cells; host or cells: HEK293T (ATCC CRL-11268).
Assay [5] addresses T4, DRD2 F1103.28A. In words: β-arrestin2 recruitment (Tango), mutant. The format is cell-based. The arrangement: expressed in transfected cells; host or cells: HEK293T (ATCC CRL-11268).

T4 sequence (P14416 whole entry F110A): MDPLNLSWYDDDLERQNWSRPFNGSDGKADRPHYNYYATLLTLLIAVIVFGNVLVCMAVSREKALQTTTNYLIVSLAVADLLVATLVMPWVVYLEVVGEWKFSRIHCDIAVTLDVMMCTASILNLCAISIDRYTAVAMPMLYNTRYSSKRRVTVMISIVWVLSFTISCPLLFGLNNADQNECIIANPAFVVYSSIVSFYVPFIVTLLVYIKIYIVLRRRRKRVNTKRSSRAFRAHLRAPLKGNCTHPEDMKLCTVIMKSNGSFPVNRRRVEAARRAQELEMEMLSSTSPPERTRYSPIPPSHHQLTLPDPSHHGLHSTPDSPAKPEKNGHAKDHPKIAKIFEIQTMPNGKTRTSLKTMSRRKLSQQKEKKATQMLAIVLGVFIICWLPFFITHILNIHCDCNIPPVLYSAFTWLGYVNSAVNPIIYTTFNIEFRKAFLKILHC
T3 sequence (P14416 whole entry F110L): as the sequence (P14416 whole entry F110A) above, with A110L counted along it

Turning to `CCOc1cccc2cc(C(C)NCC3(O)CCCCC3)oc12` (centres unmarked) [O4LE6], the Ki (in general, a measure of affinity in units of concentration, obtained from inhibition or displacement) in assay [1] was > 10 µM; at DRD2 F1103.28A [4] (DRD2 F1103.28A, read-out: Ki) it was 0.72 µM. Further, the half-maximal effective concentration (EC50) (as a rule, the concentration giving half of the maximal effect) at DRD4 (D4.4 variant) [2] was > 10 µM; on DRD4 (D4.4 variant) [3], > 10 µM; on DRD2 F1103.28L, 0.204 µM; on DRD2 F1103.28A [5], > 10 µM. Besides, the Emax (in general, the maximal effect, on the per cent scale that the assay sets) on DRD2 F1103.28L (read-out: Emax relative to quinpirole response) was found to be 4.32%. In addition, the “affinity increase (binding enhanced), mutant vs wild type” value on DRD2 F1103.28A [4] (DRD2 Phe110^3.28Ala vs wild-type DRD2) is on record as 2.64 fold.
